Earlier results, collected in US6500833B1, “(+)-Hydroxyrisperidone compositions and methods” (priority 1998, dated 2002).

Conditions: condition associated with torsades de pointes

SMILES | prolongation of QT interval
Cc1nc2n(c(=O)c1CCN1CCC(c3noc4cc(F)ccc34)CC1)CCCC2O (racemic) [hydroxyrisperidone, 9-hydroxyrisperidone] | implicated in a prolongation of QT interval
Cc1nc2n(c(=O)c1CCN1CCC(c3noc4cc(F)ccc34)CC1)CCCC2 [risperidone, Risperidone] | implicated in a prolongation of QT interval
